Twelve molecules from ChEMBL document CHEMBL1131530, “Synthesis and biological activities of tricyclic conformationally restricted tetrahydropyrido annulated furo[2,3-d]pyrimidines as inhibitors of dihydrofolate reductases” (J Med Chem, 1998) can be followed below.

A short description of data set [1]: Selectivity for dihydrofolate reductase enzyme in rat liver and Pneumocystis carinii.
Data set [2] can be described thus: Selectivity for dihydrofolate reductase enzyme in rat liver Toxoplasma gondii.
The species entered for data set [3] is Homo sapiens. Kind of data set: Growth inhibition was measured for inhibition of growth in FaDu human squamous cell carcinoma of the head and neck. Format: functional.
The target of data set [4] is T1, Dihydrofolate reductase (Pneumocystis carinii, UniProt P16184).
T1 sequence (P16184 whole entry): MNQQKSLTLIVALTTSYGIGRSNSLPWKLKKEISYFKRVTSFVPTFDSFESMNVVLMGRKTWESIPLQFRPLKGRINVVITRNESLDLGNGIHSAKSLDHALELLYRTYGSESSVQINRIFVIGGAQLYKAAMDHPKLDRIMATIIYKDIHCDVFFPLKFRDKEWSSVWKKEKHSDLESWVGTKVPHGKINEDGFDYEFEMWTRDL

Data set [5] addresses T2, Bifunctional dihydrofolate reductase-thymidylate synthase (Toxoplasma gondii, UniProt Q07422).
T2 sequence (Q07422 whole entry): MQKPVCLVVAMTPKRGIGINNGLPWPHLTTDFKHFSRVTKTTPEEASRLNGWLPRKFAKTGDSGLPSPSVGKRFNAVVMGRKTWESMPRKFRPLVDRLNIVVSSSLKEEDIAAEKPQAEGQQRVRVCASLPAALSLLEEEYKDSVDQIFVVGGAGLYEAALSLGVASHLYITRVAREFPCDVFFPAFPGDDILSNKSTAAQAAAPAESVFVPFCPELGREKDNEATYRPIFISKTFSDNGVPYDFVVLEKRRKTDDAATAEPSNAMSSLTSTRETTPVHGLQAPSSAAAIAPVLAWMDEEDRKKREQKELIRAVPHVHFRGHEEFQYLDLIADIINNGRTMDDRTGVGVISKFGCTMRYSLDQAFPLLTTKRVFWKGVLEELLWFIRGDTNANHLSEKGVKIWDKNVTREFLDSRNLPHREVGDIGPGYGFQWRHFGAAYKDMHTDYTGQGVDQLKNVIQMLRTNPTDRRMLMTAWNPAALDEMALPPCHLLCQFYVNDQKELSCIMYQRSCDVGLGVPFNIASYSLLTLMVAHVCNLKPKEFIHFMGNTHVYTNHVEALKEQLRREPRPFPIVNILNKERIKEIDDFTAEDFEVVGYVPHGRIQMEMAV

In data set [6] the target is T3, Dihydrofolate reductase (Rattus norvegicus, UniProt Q920D2).
T3 sequence (Q920D2 whole entry): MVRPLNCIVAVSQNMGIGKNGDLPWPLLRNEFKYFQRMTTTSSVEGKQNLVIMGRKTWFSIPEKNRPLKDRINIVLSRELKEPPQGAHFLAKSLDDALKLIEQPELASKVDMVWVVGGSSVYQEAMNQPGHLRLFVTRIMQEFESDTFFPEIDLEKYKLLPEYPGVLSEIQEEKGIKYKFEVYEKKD

Data set [7] concerns the target T4, Dihydrofolate reductase (Mycobacterium avium, UniProt O30463).
T4 sequence (O30463 whole entry): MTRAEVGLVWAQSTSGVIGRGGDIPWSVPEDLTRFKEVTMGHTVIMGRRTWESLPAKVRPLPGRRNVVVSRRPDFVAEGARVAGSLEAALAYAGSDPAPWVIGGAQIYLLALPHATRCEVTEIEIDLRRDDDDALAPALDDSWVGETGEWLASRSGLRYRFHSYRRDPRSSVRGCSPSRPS
Kind of data set: Inhibitory concentration was evaluated against […] Dihydrofolate reductase enzyme in Mycobacterium avium.

Data set [8] concerns the target T5, Folylpolyglutamate synthase, mitochondrial (Homo sapiens) (UniProt Q05932).
T5 sequence (whole entry): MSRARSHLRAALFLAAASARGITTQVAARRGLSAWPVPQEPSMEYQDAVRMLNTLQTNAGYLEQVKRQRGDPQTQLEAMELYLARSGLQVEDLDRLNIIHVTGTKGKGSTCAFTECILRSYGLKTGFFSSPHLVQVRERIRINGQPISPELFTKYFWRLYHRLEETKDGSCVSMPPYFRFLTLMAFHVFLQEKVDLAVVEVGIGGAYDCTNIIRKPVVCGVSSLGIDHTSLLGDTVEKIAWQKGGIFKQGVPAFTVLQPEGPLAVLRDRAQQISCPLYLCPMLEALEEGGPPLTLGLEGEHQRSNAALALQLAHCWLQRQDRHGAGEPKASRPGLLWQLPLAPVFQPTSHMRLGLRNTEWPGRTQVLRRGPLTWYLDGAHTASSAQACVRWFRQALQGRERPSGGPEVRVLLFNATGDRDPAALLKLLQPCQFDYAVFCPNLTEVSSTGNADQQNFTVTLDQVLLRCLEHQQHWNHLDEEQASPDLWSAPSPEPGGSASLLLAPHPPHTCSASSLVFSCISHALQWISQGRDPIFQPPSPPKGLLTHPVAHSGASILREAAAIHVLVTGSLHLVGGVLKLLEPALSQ
As to the kind of experiment: Activity of substrate for human FPGS was evaluated and compared to that of aminopterin (AMT).

In data set [9] the test system is CCRF-CEM. Kind of data set: Growth inhibition was measured for inhibition of growth in CCRF-CEM subline resistant to MTX solely as a result of a 20-fold increase in wild-type DHFR protein and activity. Format: functional, cell-based. The conditions noted are these: Homo sapiens.
Data set [10] deals with CCRF-CEM. As to the kind of experiment: Growth inhibition was measured for inhibition of growth in CCRF-CEM sublines resistant to MTX solely as a result of decreased polyglutamation. Format: functional, cell-based. The following applies: Homo sapiens.
The test system of data set [11] is CCRF-CEM. Kind of data set: Growth inhibition was measured as for inhibition of growth in CCRF-CEM cells. Format: functional, cell-based. The conditions noted are these: Homo sapiens.
Substrate in data set [12]: Nc1nc(N)c2c3c(oc2n1)CN(Cc1ccc(C(=O)N[C@@H](CCC(=O)O)C(=O)O)cc1)CC3
Kind of data set: Binding affinity was evaluated on CCRF-CEM human leukemia cell folyl-poly-glutamate synthetase. Format: cell-based.

On to `Nc1nc(N)c2c(CNc3ccc(C(=O)NC(CCC(=O)O)C(=O)O)cc3)coc2n1` (configuration not stated), for which the figures for the Selectivity ratio in [1] and in [2] were 1.4 and 1.9, respectively.
Consider `CN(Cc1cnc2nc(N)nc(N)c2n1)c1ccc(C(=O)N[C@@H](CCC(=O)O)C(=O)O)cc1` [METHOTREXATE], for which the 50% effective concentration (EC50) (commonly the concentration at which the effect is half-maximal) in data set [3] was 0.0172 µM. In other words, the double-digit nanomolar range.
`COc1cc(CN2CCc3c(oc4nc(N)nc(N)c34)C2)cc(OC)c1`: the 50% inhibitory concentration (IC50) (commonly the concentration that inhibits the measured activity by half) in data set [4] is > 22.8 µM; in data set [5], > 20.4 µM; in data set [6], 22.8 µM; in data set [7], > 20 µM.
In the case of `Nc1nc(N)c2c3c(oc2n1)CN(Cc1ccccc1)CC3`, the IC50 in data set [4] is > 9 µM; in data set [5] it was 1.4 µM; in data set [6] it was 15 µM; in data set [7], > 15 µM. In data set [2], the Selectivity ratio was > 10.
Consider `COc1cc(CN2CCc3c(oc4nc(N)nc(N)c34)C2)cc(OC)c1OC`, for which the IC50 in [4] was > 35 µM; in [5], > 35 µM; in data set [6], > 35 µM; in data set [7], 12.1 µM.
`Nc1nc(N)c2c3c(oc2n1)CN(Cc1ccc(Cl)c(Cl)c1)CC3`: the IC50 is 24.1 µM in data set [4], 22.3 µM in [5], 20.6 µM in data set [6] and > 20 µM in data set [7]. Moreover, the Selectivity ratio in data set [1] worked out at 0.9.
Turning to `Nc1nc(N)c2c3c(oc2n1)CN(Cc1ccc(Cl)cc1Cl)CC3`, the IC50 is 22.6 µM in [4], 13.1 µM in data set [5], 50.9 µM in data set [6] and > 50 µM in [7]. Besides, the values for the Selectivity ratio in [1] and in data set [2] were 2.3 and 3.9, respectively.
`Nc1nc(N)c2nc(CNc3ccc(C(=O)N[C@@H](CCC(=O)O)C(=O)O)cc3)cnc2n1` yielded a Relative Vmax in data set [8] of 1.
With `Nc1nc(N)c2c3c(oc2n1)CN(Cc1c(Cl)cccc1Cl)CC3`, the IC50 in [4] was 40.5 µM; in data set [5], 31.7 µM; in [6] it was 81.2 µM; in data set [7] it was > 81.2 µM. In addition, the Selectivity ratio came to 2 in [1] and 2.5 in [2].
Regarding `Nc1nc(N)c2c3c(oc2n1)CN(Cc1ccc(C(=O)N[C@@H](CCC(=O)O)C(=O)O)cc1)CC3`, the IC50 was 21.5 µM in [5], 85.8 µM in data set [6] and 0.97 µM in [7]. Also, the concentration for a half-maximal effect (EC50) is 10.3 µM in [9], > 50 µM in data set [10], 3.6 µM in data set [11] and > 100 µM in data set [3]. For the same molecule, the Selectivity ratio in [1] was found to be 7.9; in data set [2], 4. The molecule further had a Relative Vmax in data set [8] of 0.29.
On to `CN(Cc1coc2nc(N)nc(N)c12)c1ccc(C(=O)NC(CCC(=O)O)C(=O)O)cc1` (configuration not stated), for which the Selectivity ratio turned out to be 12.2 in data set [1] and 0.021 in data set [2].

B1: Folylpolyglutamate synthase, mitochondrial (Homo sapiens), Q05932 (protein)
chain: T5 sequence (whole entry)
With B1, the Michaelis-Menten constant (Km) (usually the concentration of substrate that gives half-maximal velocity) in [12] was 6.2 µM.
